In patent US7420056B2, “Substituted bicyclic imidazo-3-ylamine compounds” (Gruenenthal GmbH, priority 2004, dated 2008):
pIC50: −log10 of the molar value.

molecular target: mGluR5 receptor (Sus scrofa, UniProt I3LUI7); assay: Affinity for the mGluR5 receptor: inhibition of 3[H]-MPEP binding in pig brain homogenate; conditions: 10 μM compound, 5 nM 3[H]-MPEP, read-out: mGluR5 receptor inhibition of ^3[H]-MPEP binding [10 μM] in % at a concentration of the example compounds of 10 μM
Procedure: 1. Method for Determining Affinity for the mGluR5 Receptor
Pig brain homogenate is produced by homogenisation (Polytron Pt 3000, Kinematica AG, 10,000 revolutions per minute for 90 seconds) of pig brain hemispheres without medulla, cerebellum and pons in a buffer of pH 8.0 (30 mM Hepes, Sigma, order number H3375+1 tablet Complete Roche Diagnostics, order number 1836145 made up to 100 ml) in a ratio of 1:20 (brain weight/volume) and differential centrifugation at 900×g and 40,000×g. 450 μg of protein from brain homogenate is incubated in each case in 250 μl incubation batches in 96-well microtitre plates with 5 nM 3[H]-MPEP (Tocris, order number R1212) (MPEP=2-methyl-6-[…]) and the compounds to be investigated (10 μM in the test) in the buffer (as above) at room temperature for 60 minutes.
The batches are then filtered with the assistance of a Brandel Cell Harvester (Brandel, Grade Robotic 9600) on Unifilter plates with glass filter mats (Perkin Elmer, order number 6005177) and then washed 3 times with buffer (as above) using 250 μl per sample. The filter plates are then dried for 60 minutes at 55° C. Then 30 μl of Ultima Gold™ scintillating material (Packard BioScience, order number 6013159) is added per well and after 3 hours the samples are measured using the β counter (Microbeta, Perkin Elmer). Nonspecific binding is determined by the addition of 10 μM MPEP (Tocris, order number 1212).

mGluR5 receptor, sequence (I3LUI7 19-1212): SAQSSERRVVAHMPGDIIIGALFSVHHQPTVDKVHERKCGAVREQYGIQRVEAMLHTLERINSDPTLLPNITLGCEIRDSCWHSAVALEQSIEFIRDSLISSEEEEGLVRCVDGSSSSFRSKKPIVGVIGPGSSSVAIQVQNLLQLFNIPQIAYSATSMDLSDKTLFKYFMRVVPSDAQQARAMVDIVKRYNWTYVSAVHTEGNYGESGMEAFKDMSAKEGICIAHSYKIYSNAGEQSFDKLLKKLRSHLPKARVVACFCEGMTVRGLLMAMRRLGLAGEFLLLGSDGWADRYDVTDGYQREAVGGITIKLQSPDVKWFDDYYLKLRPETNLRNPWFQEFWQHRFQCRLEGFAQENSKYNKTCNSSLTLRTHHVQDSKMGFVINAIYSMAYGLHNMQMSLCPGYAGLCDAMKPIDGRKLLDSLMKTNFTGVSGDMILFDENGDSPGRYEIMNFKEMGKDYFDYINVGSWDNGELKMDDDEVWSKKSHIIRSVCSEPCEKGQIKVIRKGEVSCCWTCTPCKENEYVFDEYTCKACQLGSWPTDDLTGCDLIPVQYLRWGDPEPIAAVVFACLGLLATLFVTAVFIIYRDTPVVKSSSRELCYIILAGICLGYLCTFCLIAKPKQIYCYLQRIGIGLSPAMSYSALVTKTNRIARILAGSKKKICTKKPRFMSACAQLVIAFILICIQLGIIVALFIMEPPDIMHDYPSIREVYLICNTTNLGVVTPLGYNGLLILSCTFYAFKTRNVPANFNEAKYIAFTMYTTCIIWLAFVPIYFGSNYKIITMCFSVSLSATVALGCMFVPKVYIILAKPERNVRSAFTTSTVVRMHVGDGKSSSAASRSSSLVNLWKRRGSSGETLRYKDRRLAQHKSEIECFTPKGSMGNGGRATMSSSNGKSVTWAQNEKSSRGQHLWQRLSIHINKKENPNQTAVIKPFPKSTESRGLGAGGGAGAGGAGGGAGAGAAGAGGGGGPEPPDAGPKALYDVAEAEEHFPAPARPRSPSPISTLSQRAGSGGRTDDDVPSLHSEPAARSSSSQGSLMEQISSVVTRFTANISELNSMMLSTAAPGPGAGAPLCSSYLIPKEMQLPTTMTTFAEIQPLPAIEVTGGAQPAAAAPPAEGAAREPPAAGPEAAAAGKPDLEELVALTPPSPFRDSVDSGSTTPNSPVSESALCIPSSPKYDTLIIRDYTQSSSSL

SMILES	inhibition at 10 µM [%]
COc1ccc(CNc2c(-c3ccc(C#Cc4ccccc4)s3)nc3nc(C)ccn23)cc1 [Example 34, (4-methoxy-benzyl)-[7-methyl-2-(5-phenylethynyl-thiophen-2-yl)-imidazo[1,2-a]pyrimidin-3-yl]-amine]	98
Cc1cccn2c(NC(C)c3ccccc3)c(-c3ccc(C#Cc4ccccc4)s3)nc12 (stereo not drawn) [Example 35, [8-methyl-2-(5-phenylethynyl-thiophen-2-yl)-imidazo[1,2-a]pyridin-3-yl]-(1-phenyl-ethyl)-amine]	95
Cc1ccn2c(NC(C)c3ccccc3)c(-c3ccc(C#Cc4ccccc4)s3)nc2n1 (stereo not drawn) [Example 36, [7-methyl-2-(5-phenylethynyl-thiophen-2-yl)-imidazo[1,2-a]pyrimidin-3-yl]-(1-phenyl-ethyl)-amine]	100
COc1ccccc1CNc1c(-c2ccc(C#Cc3ccccc3)s2)nc2cc(C)ccn12 [Example 37, (2-methoxy-benzyl)-[7-methyl-2-(5-phenylethynyl-thiophen-2-yl)-imidazo[1,2-a]pyridin-3-yl]-amine]	85
COc1ccccc1CNc1c(-c2ccc(C#Cc3ccccc3)s2)nc2ccccn12 [Example 38, (2-methoxy-benzyl)-[2-(5-phenylethynyl-thiophen-2-yl)-imidazo[1,2-a]pyridin-3-yl]-amine]	87
Clc1ccccc1CNc1c(-c2ccc(C#Cc3ccccc3)s2)nc2ccccn12 [Example 39, (2-chloro-benzyl)-[2-(5-phenylethynyl-thiophen-2-yl)-imidazo[1,2-a]pyridin-3-yl]-amine]	72
COc1ccccc1CNc1c(-c2ccc(C#Cc3ccccc3)s2)nc2nc(C)ccn12 [Example 40, (2-methoxy-benzyl)-[7-methyl-2-(5-phenylethynyl-thiophen-2-yl)-imidazo[1,2-a]pyrimidin-3-yl]-amine]	87
COc1cccc(Nc2c(-c3ccc(C#Cc4ccccc4)s3)nc3ccc(C)cn23)c1 [Example 41, (3-methoxy-phenyl)-[6-methyl-2-(5-phenylethynyl-thiophen-2-yl)-imidazo[1,2-a]pyridin-3-yl]-amine]	73
COc1cccc(Nc2c(-c3ccc(C#Cc4ccccc4)s3)nc3cc(C)cc(C)n23)c1 [Example 42, [5,7-dimethyl-2-(5-phenylethynyl-thiophen-2-yl)-imidazo[1,2-a]pyridin-3-yl]-(3-methoxy-phenyl)-amine]	93
CCc1ccn2c(NCc3ccccc3OC)c(-c3ccc(C#Cc4ccccc4)s3)nc2c1 [Example 44, [7-ethyl-2-(5-phenylethynyl-thiophen-2-yl)-imidazo[1,2-a]pyridin-3-yl]-(2-methoxy-benzyl)-amine]	75
CCc1ccn2c(NCc3ccccc3Cl)c(-c3ccc(C#Cc4ccccc4)s3)nc2c1 [Example 45, (2-chloro-benzyl)-[7-ethyl-2-(5-phenylethynyl-thiophen-2-yl)-imidazo[1,2-a]pyridin-3-yl]-amine]	93
CC(C)(C)c1ccn2c(Nc3ccc(F)c(Cl)c3)c(-c3ccc(C#Cc4ccccc4)s3)nc2c1 [Example 46, [7-tert-butyl-2-(5-phenylethynyl-thiophen-2-yl)-imidazo[1,2-a]pyridin-3-yl]-(3-chloro-4-fluoro-phenyl)-amine]	76
COc1cccc(CNc2c(-c3ccc(C#Cc4ccccc4)s3)nc3nc(C)ccn23)c1 [Example 47, (3-methoxy-benzyl)-[7-methyl-2-(5-phenylethynyl-thiophen-2-yl)-imidazo[1,2-a]pyrimidin-3-yl]-amine]	79
CCc1ccn2c(Nc3ccccc3F)c(-c3ccc(C#Cc4ccccc4)s3)nc2c1 [Example 48, [7-ethyl-2-(5-phenylethynyl-thiophen-2-yl)-imidazo[1,2-a]pyridin-3-yl]-(2-fluoro-phenyl)-amine]	82
CC(C)(C)c1ccn2c(Nc3ccccc3F)c(-c3ccc(C#Cc4ccccc4)s3)nc2c1 [Example 49, [7-tert-butyl-2-(5-phenylethynyl-thiophen-2-yl)-imidazo[1,2-a]pyridin-3-yl]-(2-fluoro-phenyl)-amine]	85
Fc1ccc(Nc2c(-c3ccc(C#Cc4ccccc4)s3)nc3cc(CCCc4ccccc4)ccn23)c(F)c1 [Example 50, (2,4-difluoro-phenyl)-[2-(5-phenylethynyl-thiophen-2-yl)-7-(3-phenyl-propyl)-imidazo[1,2-a]pyridin-3-yl]-amine]	90
Cc1ccn2c(NCc3ccc(F)cc3)c(-c3ccc(C#Cc4ccccc4)s3)nc2c1 [Example 51, (4-fluoro-benzyl)-[7-methyl-2-(5-phenylethynyl-thiophen-2-yl)-imidazo[1,2-a]pyridin-3-yl]-amine]	89
Cc1cc(C)n2c(NCc3ccc(F)cc3)c(-c3ccc(C#Cc4ccccc4)s3)nc2c1 [Example 52, [5,7-dimethyl-2-(5-phenylethynyl-thiophen-2-yl)-imidazo[1,2-a]pyridin-3-yl]-(4-fluoro-benzyl)-amine]	75
CCc1ccn2c(NCc3cccc(C(F)(F)F)c3)c(-c3ccc(C#Cc4ccccc4)s3)nc2c1 [Example 53, [7-ethyl-2-(5-phenylethynyl-thiophen-2-yl)-imidazo[1,2-a]pyridin-3-yl]-(3-trifluoromethyl-benzyl)-amine]	80
CC(C)c1ccn2c(NCc3cccc(C(F)(F)F)c3)c(-c3ccc(C#Cc4ccccc4)s3)nc2c1 [Example 54, [7-isopropyl-2-(5-phenylethynyl-thiophen-2-yl)-imidazo[1,2-a]pyridin-3-yl]-(3-trifluoromethyl-benzyl)-amine]	69
CC(C)(C)CC(C)(C)Nc1c(-c2ccc(C#Cc3ccccc3)s2)nc2c(Cl)cc(Cl)cn12 [Example 63, [6,8-dichloro-2-(5-phenylethynyl-thiophen-2-yl)-imidazo[1,2-a]pyridin-3-yl]-(1,1,3,3-tetramethyl-butyl)-amine]	65

Other lines, results leading:

inhibition at 10 µM [%]	SMILES
83	COc1cccc(Nc2c(-c3ccc(C#Cc4ccccc4)s3)nc3cnccn23)c1 [Example 43, (3-methoxy-phenyl)-[2-(5-phenylethynyl-thiophen-2-yl)-imidazo[1,2-a]pyrazin-3-yl]-amine]
77	CC(C)(C)Nc1c(-c2cc(C#Cc3ccccc3)cs2)nc2cnccn12 [Example 55, tert-butyl-[2-(4-phenylethynyl-thiophen-2-yl)-imidazo[1,2-a]pyrazin-3-yl]-amine]
100	CC(C)(C)CC(C)(C)Nc1c(-c2ccc(C#Cc3ccccc3)s2)nc2cnccn12 [Example 56, [2-(5-phenylethynyl-thiophen-2-yl)-imidazo[1,2-a]pyrazin-3-yl]-(1,1,3,3-tetramethyl-butyl)-amine]
94	CCCCNc1c(-c2cc(C#Cc3ccccc3)cs2)nc2cnccn12 [Example 57, butyl-[2-(4-phenylethynyl-thiophen-2-yl)-imidazo[1,2-a]pyrazin-3-yl]-amine]
26	CC(C)(C)CC(C)(C)Nc1c(-c2ccc(C#Cc3ccccc3)s2)nc2ccc(Cl)cn12 [Example 62, [6-chloro-2-(5-phenylethynyl-thiophen-2-yl)-imidazo[1,2-a]pyridin-3-yl]-(1,1,3,3-tetramethyl-butyl)-amine]

same assay, conditions: 3[H]-MPEP binding

SMILES	pIC50
CC(C)(C)CC(C)(C)Nc1c(-c2ccc(C#Cc3ccccc3)s2)nc2ccccn12 [Example 59, [2-(5-phenylethynyl-thiophen-2-yl)-imidazo[1,2-a]pyridin-3-yl]-(1,1,3,3-tetramethyl-butyl)-amine]	5.68
CC(C)(C)CC(C)(C)Nc1c(-c2ccc(C#Cc3cccnc3)s2)nc2cnccn12 [Example 60, [2-(5-Pyridin-3-ylethynyl-thiophen-2-yl)-imidazo[1,2-a]pyrazin-3-yl]-(1,1,3,3-tetramethyl-butyl)-amine]	5.92
CC(C)(C)CC(C)(C)Nc1c(-c2ccc(C#Cc3ccncc3)s2)nc2cnccn12 [Example 61, [2-(5-pyridin-4-ylethynyl-thiophen-2-yl)-imidazo[1,2-a]pyrazin-3-yl]-(1,1,3,3-tetramethyl-butyl)-amine]	7.37
CC(C)(C)CC(C)(C)Nc1c(-c2ccc(C#Cc3ccccn3)s2)nc2cnccn12 [Example 64, [2-(5-pyridin-2-ylethynyl-thiophen-2-yl)-imidazo[1,2-a]pyrazin-3-yl]-(1,1,3,3-tetramethyl-butyl)-amine]	7.48
CN(C)c1c(-c2ccc(C#Cc3ccccc3)s2)nc2cnccn12 [Example 65, dimethyl-[2-(5-phenylethynyl-thiophen-2-yl)-imidazo[1,2-a]pyrazin-3-yl]-amine]	5.42
CNc1c(-c2ccc(C#Cc3ccccc3)s2)nc2cnccn12 [Example 66, methyl-[2-(5-phenylethynyl-thiophen-2-yl)-imidazo[1,2-a]pyrazin-3-yl]-amine]	5.50
CC(=O)Nc1c(-c2ccc(C#Cc3ccccc3)s2)nc2cnccn12 [Example 67, N-[2-(5-phenylethynyl-thiophen-2-yl)-imidazo[1,2-a]pyrazin-3-yl]-acetamide]	5.42
